# Test results as given in patent US10758522B2, “Small molecule analogs of the nemo binding peptide” (THE SCRIPPS RESEARCH INSTITUTE, priority 2015, dated 2020).
# Tested on: NF-κB
# Experiment: Firefly luciferase NF-κB reporter assay in TNF-α-stimulated HEK293 cells
# Type: cell-based
# Settings: for inhibition of TNF-α-induced NF-κB activation (luciferase reporter), in words: 293 NF-κB luciferase reporter cells, 10 ng/ml TNF-α, compound 12909780 at 100 μM
# Protocol: This model was used to screen a subset of the drug-like ZINC 8.0 database set (˜900,000 compounds) (Irwin et al., 2005). We were able to identify 161 hits that matched at least 6 features out of eight of the pharmacophore model. […] Two compounds termed NBDA-1 (Zinc-13) and NBDA-2 (Zinc-5), successfully passed these filters (See FIG. 4) and were purchased for biological testing. The compounds were then tested for ability to inhibit TNF-alpha-mediated induction of NF-κB activity in a 293 cells stably modified with a NF-κB luciferase reporter.
# The activation of NF-κB was then quantitated by measuring the level of luciferase activity. […] Also, protein extracts were prepared from the same cells and the level of phospho-IkB determined, a marker of IKK activity.
# To test if the small molecules identified by the in silico screen inhibit NF-κB activation, a HEK293 cell line stably expressing a luciferase reporter driven by a synthetic, NF-κB-dependent promoter was utilized. To induce NF-κB activation, cells were treated with 10 ng/ml of TNF-α and harvested three hours post-treatment for analysis of luciferase activity. […] To determine if compound 12909780 inhibited NF-κB in a dose dependent manner, concentrations were tested at 0, 6.25, 25, 50 and 100 μM.
# HEK293 cells stably transfected with luciferase reporter plasmid driven by NF-κB were seeded in 96-well plate in triplicate and pretreated with DMSO or varying small molecules at indicated concentration for 30 min, followed by the stimulation of 10 ng/ml of TNFα for 3 hr. Cell were washed with PBS once and harvested in passive lysis buffer. Luciferase assay (Promega) was performed using a luminometer according to the manufacturer's instructions.
structure (smiles),measurement,setting,value
"Nc1ncccc1C(=O)OCC(=O)Nc1ccc(Cl)cc1F [NBDA-1, 2-((4-chloro-2-fluorophenyl)amino)-2-oxoethyl 2-aminonicotinate]","dose-dependent inhibition of TNF-α-induced NF-κB activation, in words","0, 6.25, 25, 50 and 100 μM",only high concentrations (50 and 100 μM) of the compound were able to inhibit TNF-α-induced NF-κB activation significantly
same,"inhibition of TNF-α-induced NF-κB activation (luciferase reporter), in words",,slightly downregulated NF-κB activation
same,"inhibition of TNF-α-induced NF-κB activation (luciferase reporter), in words",listed as Zinc-13,able to reduce activation of NF-κB by TNF-alpha at low micromolar ranges
